Columns and labels:
[1] = Selectivity ratio of IC50 for MMP2 to IC50 for MMP13
[2] = Selectivity ratio of IC50 for MMP3 to IC50 for MMP13
[3] = Selectivity ratio of IC50 for MMP8 to IC50 for MMP13
[4] = Selectivity ratio of IC50 for MMP10 to IC50 for MMP13
[5] = biological target: Collagenase 3 (Homo sapiens, UniProt P45452)
[6] = tested on: Liver microsomes; test: Metabolic stability in human liver microsomes; format: ADME, Microsome
[7] = Aqueous solubility of the compound at pH 4.5; format: physicochemical; settings: aqueous medium
[8] = Aqueous solubility of the compound at pH 7.4; format: physicochemical; settings: aqueous medium
[9] = tested on: Rattus norvegicus; test: Clearance in rat as % of liver blood flow at 1 mg/kg, iv; format: ADME, organism-based; parameters: dose 1 mg/kg, route intravenous; settings: in vivo
[10] = Volume of distribution at steady state in rat at 1 mg/kg, iv; format: ADME, organism-based; parameters: dose 1 mg/kg, route intravenous; settings: in vivo, read-out: Vdss
[11] = Half life in rat at 1 mg/kg, iv; format: ADME, organism-based; parameters: dose 1 mg/kg, route intravenous; settings: in vivo

Structure (SMILES)	Ratio IC50 [1]	Ratio IC50 [2]	Ratio IC50 [3]	Ratio IC50 [4]	IC50 [5] [nM]	Stability [6] [%]	solubility [7] [µg/mL]	solubility [8] [µg/mL]	Fraction of Liver Blood Flow [9] [%]	Vd [10] [L/kg]	half-life [11] [min]
CNC(=O)[C@H](NC(=O)c1ccc(-c2cccc(CNC(=O)c3nccn3C)c2)o1)C1CCCCC1	> 64	> 64	> 64	9	310						
CNC(=O)[C@H](NC(=O)c1ccc(-c2cccc(CNC(=O)c3cn4ccc(C)cc4n3)c2)o1)C1CCCCC1	> 37	> 37	> 37	32	140						
CNC(=O)[C@@H](NC(=O)c1ccc(-c2cccc(CNC(=O)c3cccc(C(F)(F)F)n3)c2)o1)C(C)(C)O	> 770	> 400	> 810	440	25	62					
CNC(=O)[C@H](NC(=O)c1ccc(-c2cccc(CNC(=O)c3cccc(C(F)(F)F)n3)c2)o1)C1CCCCC1	> 2300	> 2300	> 2300	> 2300	9	81					
CNC(=O)[C@@H](NC(=O)c1ccc(-c2cccc(CNC(=O)c3cccc(C(F)(F)F)n3)c2)o1)C(C)C	> 3600	1000	> 3600	260	6	88					
CNC(=O)[C@H](NC(=O)c1ccc(-c2cccc(CNC(=O)c3occc3C)c2)o1)C1CCCCC1	> 110	> 110	> 110	17	180						
CNC(=O)[C@@H](NC(=O)c1ccc(-c2cccc(CNC(=O)c3ccnc(C(F)(F)F)n3)c2)o1)C1CCOCC1	640	250	> 11000	100		24					
CNC(=O)[C@H](NC(=O)c1ccc(-c2cccc(CNC(=O)c3csc(C)n3)c2)o1)C1CCCCC1	310		1800	7	8						
CCc1cncc(C(=O)NCc2cccc(-c3ccc(C(=O)N[C@@H](C(=O)NC)C4CCCCC4)o3)c2)c1	> 170	> 170	> 170	45	29						
CNC(=O)[C@H](NC(=O)c1ccc(-c2cccc(CNC(=O)c3ccncn3)c2)o1)C1CCCCC1	290		> 2000	9	10						
CNC(=O)[C@H](NC(=O)c1ccc(-c2cccc(CNC(=O)c3ccnc(Cl)n3)c2)o1)C1CCCCC1	590		> 7100	27	3						
CNC(=O)[C@@H](NC(=O)c1ccc(-c2cccc(CNC(=O)c3ccnc(C(F)(F)F)n3)c2)o1)C1CC1	580	540	> 560	170	36	69			47	1.2	42
CNC(=O)[C@@H](NC(=O)c1ccc(-c2cccc(CNC(=O)c3cccc(C(F)(F)F)n3)c2)o1)C1CCOCC1	1500	330	7100	130		83					

Now from value to compound, other results behind:

Ratio IC50 [1]	Ratio IC50 [2]	Ratio IC50 [3]	Ratio IC50 [4]	IC50 [5] [nM]	Stability [6] [%]	solubility [7] [µg/mL]	solubility [8] [µg/mL]	Structure (SMILES)	Fraction of Liver Blood Flow [9] [%]	Vd [10] [L/kg]	half-life [11] [min]
> 61	9	> 61	8	330				CNC(=O)[C@H](NC(=O)c1ccc(-c2cccc(CNC(=O)c3ccoc3C)c2)o1)C1CCCCC1			
> 2400	200	> 2400	65	8				CNC(=O)[C@H](NC(=O)c1ccc(-c2cccc(CNC(=O)c3ccccn3)c2)o1)C1CCCCC1			
> 280	51	> 280	19	72				CNC(=O)[C@H](NC(=O)c1ccc(-c2cccc(CNC(=O)c3cc(C)n(C)n3)c2)o1)C1CCCCC1			
850	200	> 2100	50	9	70			CNC(=O)[C@@H](NC(=O)c1ccc(-c2cccc(CNC(=O)c3ccnc(C(F)(F)F)n3)c2)o1)C(C)C			
					14	> 50	> 50	CNC(=O)[C@@H](NC(=O)c1ccc(-c2cccc(CNC(=O)c3ccnc(C(F)(F)F)n3)c2)o1)C(C)(C)O	26	0.9	57
> 45	> 45	> 45	29	110				CNC(=O)[C@H](NC(=O)c1ccc(-c2cccc(CNC(=O)c3cn4cccc(C)c4n3)c2)o1)C1CCCCC1			
310		> 660	4	31				CNC(=O)[C@H](NC(=O)c1ccc(-c2cccc(CNC(=O)c3ccncc3)c2)o1)C1CCCCC1			
> 4900	240	> 4900	87	4				CNC(=O)[C@H](NC(=O)c1ccc(-c2cccc(CNC(=O)c3cccc(C)n3)c2)o1)C1CCCCC1			
> 480		48	7	42				CNC(=O)[C@H](NC(=O)c1ccc(-c2cccc(CNC(=O)c3cccnc3)c2)o1)C1CCCCC1			
> 270	15	> 270	6	75				CNC(=O)[C@H](NC(=O)c1ccc(-c2cccc(CNC(=O)c3ccco3)c2)o1)C1CCCCC1			
> 430	33	> 820	14	24				CNC(=O)[C@H](NC(=O)c1ccc(-c2cccc(CNC(=O)c3ccn(C)n3)c2)o1)C1CCCCC1			
5	3	> 7	0.5	3300				CNC(=O)[C@H](NC(=O)c1ccc(-c2cccc(CNC(C)=O)c2)o1)C1CCCCC1			
> 200	85	> 200	31	100				CNC(=O)[C@H](NC(=O)c1ccc(-c2cccc(CNC(=O)c3ncccc3C)c2)o1)C1CCCCC1			
> 2800	> 2800	> 2800	370	7	66			CNC(=O)[C@H](NC(=O)c1ccc(-c2cccc(CNC(=O)c3ccnc(C(F)(F)F)n3)c2)o1)C1CCCCC1			
					60			CNC(=O)[C@@H](NC(=O)c1ccc(-c2cccc(CNC(=O)c3cccc(C(F)(F)F)n3)c2)o1)C1CC1			

Source: ChEMBL document CHEMBL1221301, “SAR studies of non-zinc-chelating MMP-13 inhibitors: improving selectivity and metabolic stability” (Bioorg Med Chem Lett, 2010)
